According to patent US12145987B2, “Method for depleting cytotoxic T cells using an anti-LAG-3 antibody composition” (Daiichi Sankyo Company, Limited, priority 2017, dated 2024):

Legend:
Assay type in all cases: cell-based
[1] = tested on: T cells (total number); assay: Total T cell number after CD3/CD28 stimulation of human PBMCs for 4 days, flow cytometry; conditions: hLA212_H4/L2 10 μg/mL, tacrolimus 10 nM, dexamethasone 1 μM, PBMCs of two donors
Description: (§1) PBMCs were separated from human peripheral blood by Ficoll centrifugation and added to a 96-well U-bottom microplate in an amount of 4×10^5 cells/well. Human IL-2 (PeproTech, Inc., final concentration: 100 ng/mL) and Dynabeads Human T-Activator CD3/CD28 (Life Technologies Corp., 4×105 beads/well) were added thereto, and T cells were activated by culture for 4 days. The obtained cells were recovered, suspended in a FACS buffer (PBS, 0.1% BSA, and 0.1% sodium azide), and then reacted with Human BD Fc Block (Becton, Dickinson and Company) at room temperature for 10 minutes. Subsequently, the cell surface was stained by reaction at 4° C. for 30 minutes with fluorescently labeled antibodies diluted with a FACS buffer containing a LIVE/DEAD Fixable Dead Cell Stain Kit-near-IR fluorescent reactive dye (manufactured by Invitrogen Corp.), followed by washing with a FACS buffer. […] The data was analyzed using FlowJo (manufactured by Tree Star Inc). After removal of the LIVE/DEAD Fixable Dead Cell Stain Kit-near-IR fluorescent reactive dye-positive dead cells by gating, only the living cells were analyzed by further gating CD3 positive and CD8 positive CD8 T cells. […]

[2] = tested on: perforin positive CD8 T cells; assay: Perforin positive CD8 T cell number after CD3/CD28 stimulation of human PBMCs for 4 days, flow cytometry; conditions: hLA212_H4/L2 10 μg/mL, tacrolimus 10 nM, PBMCs of two donors
Description: as §1

[3] = tested on: CD28 negative T cells; assay: CD28 negative T cell number after CD3/CD28 stimulation of human PBMCs for 4 days, flow cytometry; conditions: tacrolimus 10 nM, dexamethasone 1 μM, two donors
Description: (§2) PBMCs were separated from human peripheral blood by Ficoll centrifugation and added to a 96-well U-bottom microplate in an amount of 4×10^5 cells/well. Human IL-2 (PeproTech, Inc., final concentration: 100 ng/mL) and Dynabeads Human T-Activator CD3/CD28 (Life Technologies Corp., 4×105 beads/well) were added thereto, and T cells were activated by culture for 4 days. The obtained cells were recovered, suspended in a FACS buffer (PBS, 0.1% BSA, and 0.1% sodium azide), and then reacted with Human BD Fc Block (Becton, Dickinson and Company) at room temperature for 10 minutes. […] The data was analyzed using FlowJo (manufactured by Tree Star Inc). After removal of the LIVE/DEAD Fixable Dead Cell Stain Kit-near-IR fluorescent reactive dye-positive dead cells by gating, only the living cells were analyzed by further gating CD3 positive and CD8 positive CD8 T cells.
(§3) The effect of the humanized anti-human LAG-3 antibody hLA212_H4/L2, the calcineurin inhibitor tacrolimus, and the corticosteroid dexamethasone on CD28 negative T cells and CD57 positive T cells was investigated in the assay system of Example 13. […] Out of the living cells, a CD3 positive and CD8 negative fraction and a CD3 positive and CD8 positive fraction were analyzed as CD4 T cells and CD8 T cells, respectively.

[4] = tested on: CD57 positive T cells; assay: CD57 positive T cell number after CD3/CD28 stimulation of human PBMCs for 4 days, flow cytometry; conditions: tacrolimus 10 nM, dexamethasone 1 μM, two donors
Description: as §2, §3

[5] = hLA212_H4/L2 10, 1, 0.1 μg/mL (effect concentration dependent)

C=CC[C@@H]1/C=C(\C)C[C@H](C)C[C@H](OC)[C@H]2O[C@@](O)(C(=O)C(=O)N3CCCC[C@H]3C(=O)O[C@H](/C(C)=C/[C@@H]3CC[C@@H](O)[C@H](OC)C3)[C@H](C)[C@@H](O)CC1=O)[C@H](C)C[C@@H]2OC [tacrolimus, reference compound]
total number of T cells after culture, compared with the control [1]: slightly reduced
number of perforin positive CD8 T cells, compared with the control [2]: rarely different from those of the control
number of CD28 negative CD8 T cells [3, 5]: evident reduction in the number of CD28 negative CD8 T cells as found for the LAG-3 antibody was not observed
number of CD28 negative CD4 T cells ([3]; hLA212_H4/L2 10, 1, 0.1 μg/mL): hardly effective or rather increased the cell number
number of CD57 positive CD8 T cells [4, 5]: evident reduction in the number of CD57 positive CD8 T cells as found for the LAG-3 antibody was not observed
number of CD57 positive CD4 T cells ([4]; hLA212_H4/L2 10, 1, 0.1 μg/mL): such an effect was hardly observed
